Experimental findings from patent US20100234832A1, “METHOD FOR VASCULAR TREATMENT” (priority 2009, published 2010) are described below.

The data set has as its system femoral nerve. The data set is described as follows: Femoral nerve block with lidocaine injected under echographic/ultrasound control. Format: in vivo, human. As to the method: To accomplish femoral nerve block, an appropriate amount of local anesthetic is injected in the vicinity of femoral nerve close to the femoral artery under ultrasound control. After anesthesia takes effect, a needle is inserted through the skin into the vein to be treated and an optical fiber is introduced inside it. A typical procedure to carry out this task is to insert a guide wire inside the vein through needle's lumen, after the anesthesia has been introduced and takes effect. Once the guide wire is inserted, a dilator is used to slightly increase the size of the punction made onto the skin, in order to accomplish an easy catheter insertion. After catheter is inserted, guide wire is extracted and optical fiber is inserted through the catheter inside the vein and is advanced to the desired start position.
A main objective of this femoral block is to achieve sensory nerve function for blockage only, thus the least amount of lidocaine used yields the least probability for motor function to be affected. […] As a consequence, there is some minimal amount needed, which might differ by patient and procedure for an adequate and complete sensory block.
Lidocaine solutions much above 0.5% are thus not preferred, as the likelihood of concomitant loss of motor control along with the desired sensory blockage becomes too great, rendering patient recovery period longer. Concentration of other local anesthetics, with differing activity, would have a somewhat different effective range of preferred use.
A safe and effective femoral block procedure is achieved by sequentially carrying out the following steps: • 1. Attach monitors and if necessary give light sedation. • 2. Put patient in supine position with the operative leg slightly abducted. • 3. Prepare the groin. • 4. Place a transducer with the appropriate frequency range (10-12 MHz) along the inguinal crease. If the femoral artery and nerve are deep (>4 cm), use a 7 MHz transducer. • 5. Optimize machine imaging capability; select appropriate depth of e d (usually within 1-3 cm), focus range and gain. • 6. Identify the femoral artery. […]

Turning to `CCN(CC)CC(=O)Nc1c(C)cccc1C` [lidocaine], the “anesthetic effect (sensory femoral nerve block)” value (0.1% lidocaine, femoral block) is reported as “functioned well”. Moreover, where the note is “20 ml of 1% lidocaine, femoral block”, the motor function blockage result is reported as “also blocked motor function”. For the setting “20 ml of lidocaine, concentration 0.1% to 0.5%, injected under echographic control”, the femoral block result is on record as “accomplish the femoral block”.
